From patent publication US11833160B2, “Ursodeoxycholic acid derivatives as HDAC inhibitors for the treatment of polycystic diseases” (UNIVERSIDAD DEL PAIS VASCO/EUSKAL HERRIKO UNIBERTSITATEA, priority 2017, dated 2023)
Blank lines part the entries; values can stand above or below the molecule they belong to.

Legend:
human HDAC5 = molecular target: T1, human HDAC5 (Homo sapiens, UniProt Q9UQL6); assay: HDAC5 enzymatic activity assay (fluorogenic peptide); type: biochemical; conditions: 10-dose, 3-fold serial dilution, triplicate
T1 construct: GST (N); purchased BioMol, Hamburg, Germany; host or cells: baculovirus / Sf9 cells
T1 sequence (Q9UQL6 1-1123 isoform Q9UQL6-3): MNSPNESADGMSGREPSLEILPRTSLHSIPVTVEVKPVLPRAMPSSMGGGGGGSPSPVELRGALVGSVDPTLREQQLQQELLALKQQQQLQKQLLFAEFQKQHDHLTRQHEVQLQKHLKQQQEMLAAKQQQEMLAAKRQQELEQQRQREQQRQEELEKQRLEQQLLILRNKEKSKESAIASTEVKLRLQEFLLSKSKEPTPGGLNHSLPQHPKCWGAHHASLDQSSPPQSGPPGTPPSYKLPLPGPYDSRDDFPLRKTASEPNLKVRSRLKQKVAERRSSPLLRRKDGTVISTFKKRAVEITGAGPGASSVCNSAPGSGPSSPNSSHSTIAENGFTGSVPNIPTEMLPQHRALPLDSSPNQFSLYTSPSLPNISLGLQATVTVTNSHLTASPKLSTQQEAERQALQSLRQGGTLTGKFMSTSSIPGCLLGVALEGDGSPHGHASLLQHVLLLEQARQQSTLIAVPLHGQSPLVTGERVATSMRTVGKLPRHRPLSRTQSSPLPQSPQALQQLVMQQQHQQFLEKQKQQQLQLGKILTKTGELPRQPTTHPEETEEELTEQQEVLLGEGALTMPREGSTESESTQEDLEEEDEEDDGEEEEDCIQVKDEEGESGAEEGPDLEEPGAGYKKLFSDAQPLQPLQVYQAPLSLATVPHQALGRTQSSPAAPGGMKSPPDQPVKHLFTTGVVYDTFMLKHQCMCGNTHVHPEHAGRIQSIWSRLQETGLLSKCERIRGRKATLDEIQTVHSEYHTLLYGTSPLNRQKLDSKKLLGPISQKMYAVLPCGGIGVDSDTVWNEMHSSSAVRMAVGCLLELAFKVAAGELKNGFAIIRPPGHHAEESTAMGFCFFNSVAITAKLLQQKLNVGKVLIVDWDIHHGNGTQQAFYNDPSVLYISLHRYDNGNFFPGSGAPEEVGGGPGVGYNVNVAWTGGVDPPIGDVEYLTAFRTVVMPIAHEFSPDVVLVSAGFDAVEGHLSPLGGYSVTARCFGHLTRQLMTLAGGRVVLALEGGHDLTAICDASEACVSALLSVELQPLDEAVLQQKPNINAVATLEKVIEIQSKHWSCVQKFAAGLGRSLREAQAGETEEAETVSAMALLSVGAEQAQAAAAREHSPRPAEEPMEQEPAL
Method: (§1) Peptide substrates: all HDAC assays were performed using acetylated peptide substrates labeled with 7-amino-4-methylcoumarin (AMC): • Substrate for isoforms HDAC1, 2, 3, 6, 10, 11, and HeLa nuclear extract assays: acetylated fluorogenic peptide from p53 residues 379-382 (RHKKAc). • Substrate for isoforms HDAC4, 5, 7, 9: fluorogenic Boc-L-Lys (s-trifluoroacetyl)-AMC. • Substrate for HDAC8 assays: acetylated fluorogenic peptide from p53 residues 379-382 (RHKAcKAc).
50 μl of peptide substrate (see “peptide substrates” section above) and an optimal concentration of the corresponding enzyme (see “enzymes” section above) in the assay buffer at a final DMSO concentration of 1% were incubated in the presence of gradient concentrations of inhibitors (10-dose IC50 mode with 3-fold serial dilution) at 30° C. for 2 hours. The reactions were carried out in a 96-well microplate for fluorometry in a 50 μl reaction volume. After the deacetylation reaction, Fluor-de-Lys-Developer (BioMol Cat. #KI-105) was added to each well to digest the deacetylated substrate, thereby producing the fluorescent signal. The reaction was carried out for 45 minutes at 30° C. with 5% CO2; the fluorescent signal was then measured using an excitation wavelength of 360 nm and an emission wavelength of 460 nm in a microplate-reading fluorometer (GeminiXS, Molecular Devices, Sunnyvale, CA). […]

human HDAC7 = molecular target: T2, human HDAC7 (Homo sapiens, UniProt Q8WUI4); assay: HDAC7 enzymatic activity assay (fluorogenic peptide); type: biochemical; conditions: 10-dose, 3-fold serial dilution, triplicate
T2 construct: amino acids 518 end with GST N-terminal tag, MW=78 kDa; GST (N); purchased BioMol, Hamburg, Germany; host or cells: baculovirus expression system
T2 sequence (Q8WUI4 479-952 limits assumed): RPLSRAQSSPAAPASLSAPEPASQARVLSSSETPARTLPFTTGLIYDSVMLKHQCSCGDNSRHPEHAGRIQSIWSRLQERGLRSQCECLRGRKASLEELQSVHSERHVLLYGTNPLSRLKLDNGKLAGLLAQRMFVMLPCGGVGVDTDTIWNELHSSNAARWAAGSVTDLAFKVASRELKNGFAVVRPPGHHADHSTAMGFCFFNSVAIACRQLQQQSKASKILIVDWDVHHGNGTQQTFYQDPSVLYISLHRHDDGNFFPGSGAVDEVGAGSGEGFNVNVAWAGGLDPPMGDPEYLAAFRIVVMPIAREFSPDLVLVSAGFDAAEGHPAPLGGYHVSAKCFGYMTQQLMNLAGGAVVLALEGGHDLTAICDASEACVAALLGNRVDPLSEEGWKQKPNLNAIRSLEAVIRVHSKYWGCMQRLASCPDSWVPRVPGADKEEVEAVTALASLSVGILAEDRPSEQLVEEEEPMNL
Method: as §1
(§2) 50 μl of peptide substrate (see “peptide substrates” section above) and an optimal concentration of the corresponding enzyme (see “enzymes” section above) in the assay buffer at a final DMSO concentration of 1% were incubated in the presence of gradient concentrations of inhibitors (10-dose IC50 mode with 3-fold serial dilution) at 30° C. for 2 hours. The reactions were carried out in a 96-well microplate for fluorometry in a 50 μl reaction volume. After the deacetylation reaction, Fluor-de-Lys-Developer (BioMol Cat. #KI-105) was added to each well to digest the deacetylated substrate, thereby producing the fluorescent signal. The reaction was carried out for 45 minutes at 30° C. with 5% CO2; the fluorescent signal was then measured using an excitation wavelength of 360 nm and an emission wavelength of 460 nm in a microplate-reading fluorometer (GeminiXS, Molecular Devices, Sunnyvale, CA). A curve of deacetylated standard (Biomol, Cat. #KI-142; made from 100 μM with 1:2 dilution and 10 doses, 6 μl) allowed the conversion of the fluorescent signal into micromoles of deacetylated product. All experiments were performed in triplicate. The IC50s were calculated by fitting the experimental data to dose-response curve. DMSO was used as negative control; Trichostatin A (Biomol Cat. #GR-309) was used as positive control inhibitor.
(§3) Enzymatic activity assays were carried out in 11 HDAC enzymes, including HDAC6.

human HDAC8 = molecular target: T3, human HDAC8 (Homo sapiens, UniProt Q9BY41); assay: HDAC8 enzymatic activity assay (fluorogenic peptide); type: biochemical; conditions: 10-dose, 3-fold serial dilution, triplicate
T3 construct: purchased BioMol SE-145; host or cells: E. coli
T3 sequence (Q9BY41 1-377): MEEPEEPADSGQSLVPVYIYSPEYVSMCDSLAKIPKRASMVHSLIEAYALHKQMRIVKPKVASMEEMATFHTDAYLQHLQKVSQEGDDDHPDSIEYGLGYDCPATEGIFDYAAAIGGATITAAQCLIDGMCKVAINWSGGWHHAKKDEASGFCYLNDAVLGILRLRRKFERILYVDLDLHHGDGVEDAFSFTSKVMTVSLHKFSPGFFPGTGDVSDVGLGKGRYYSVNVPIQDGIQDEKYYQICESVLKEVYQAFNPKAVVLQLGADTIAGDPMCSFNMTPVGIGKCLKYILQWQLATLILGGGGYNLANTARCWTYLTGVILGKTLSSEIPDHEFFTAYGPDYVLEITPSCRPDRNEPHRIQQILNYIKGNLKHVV
Method: as §1, §2, §3

human HDAC1 = molecular target: T4, human HDAC1 (Homo sapiens, UniProt Q13547); assay: HDAC1 enzymatic activity assay (fluorogenic peptide); type: biochemical; conditions: for IC50: 10-dose, 3-fold serial dilution, triplicate
T4 construct: GST (C); purchased BioMol SE-456; host or cells: baculovirus / Sf9 cells
T4 sequence (Q13547 whole entry): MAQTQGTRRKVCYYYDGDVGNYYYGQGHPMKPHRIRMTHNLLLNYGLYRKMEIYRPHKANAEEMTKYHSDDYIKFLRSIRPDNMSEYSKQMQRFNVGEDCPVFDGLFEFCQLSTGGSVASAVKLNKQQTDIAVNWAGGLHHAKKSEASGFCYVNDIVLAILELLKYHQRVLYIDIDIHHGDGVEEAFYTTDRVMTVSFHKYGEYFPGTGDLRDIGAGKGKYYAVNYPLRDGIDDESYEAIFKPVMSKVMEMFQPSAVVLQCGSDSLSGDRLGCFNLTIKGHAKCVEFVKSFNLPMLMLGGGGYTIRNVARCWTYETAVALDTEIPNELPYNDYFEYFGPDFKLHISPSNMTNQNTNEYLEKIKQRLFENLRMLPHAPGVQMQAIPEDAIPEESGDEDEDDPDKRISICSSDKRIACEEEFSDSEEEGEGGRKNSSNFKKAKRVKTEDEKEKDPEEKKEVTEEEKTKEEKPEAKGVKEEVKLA
Method: as §1, §2, §3

human HDAC6 = molecular target: T5, human HDAC6 (Homo sapiens, UniProt Q9UBN7); assay: HDAC6 enzymatic activity assay (fluorogenic peptide); type: biochemical; conditions: for IC50: 10-dose, 3-fold serial dilution, triplicate; for HDAC6 selectivity proportion: matches IC50 HDAC1 / IC50 HDAC6
T5 construct: GST (N); purchased BioMol SE-508; host or cells: baculovirus / Sf9 cells
T5 sequence (Q9UBN7 1-1215): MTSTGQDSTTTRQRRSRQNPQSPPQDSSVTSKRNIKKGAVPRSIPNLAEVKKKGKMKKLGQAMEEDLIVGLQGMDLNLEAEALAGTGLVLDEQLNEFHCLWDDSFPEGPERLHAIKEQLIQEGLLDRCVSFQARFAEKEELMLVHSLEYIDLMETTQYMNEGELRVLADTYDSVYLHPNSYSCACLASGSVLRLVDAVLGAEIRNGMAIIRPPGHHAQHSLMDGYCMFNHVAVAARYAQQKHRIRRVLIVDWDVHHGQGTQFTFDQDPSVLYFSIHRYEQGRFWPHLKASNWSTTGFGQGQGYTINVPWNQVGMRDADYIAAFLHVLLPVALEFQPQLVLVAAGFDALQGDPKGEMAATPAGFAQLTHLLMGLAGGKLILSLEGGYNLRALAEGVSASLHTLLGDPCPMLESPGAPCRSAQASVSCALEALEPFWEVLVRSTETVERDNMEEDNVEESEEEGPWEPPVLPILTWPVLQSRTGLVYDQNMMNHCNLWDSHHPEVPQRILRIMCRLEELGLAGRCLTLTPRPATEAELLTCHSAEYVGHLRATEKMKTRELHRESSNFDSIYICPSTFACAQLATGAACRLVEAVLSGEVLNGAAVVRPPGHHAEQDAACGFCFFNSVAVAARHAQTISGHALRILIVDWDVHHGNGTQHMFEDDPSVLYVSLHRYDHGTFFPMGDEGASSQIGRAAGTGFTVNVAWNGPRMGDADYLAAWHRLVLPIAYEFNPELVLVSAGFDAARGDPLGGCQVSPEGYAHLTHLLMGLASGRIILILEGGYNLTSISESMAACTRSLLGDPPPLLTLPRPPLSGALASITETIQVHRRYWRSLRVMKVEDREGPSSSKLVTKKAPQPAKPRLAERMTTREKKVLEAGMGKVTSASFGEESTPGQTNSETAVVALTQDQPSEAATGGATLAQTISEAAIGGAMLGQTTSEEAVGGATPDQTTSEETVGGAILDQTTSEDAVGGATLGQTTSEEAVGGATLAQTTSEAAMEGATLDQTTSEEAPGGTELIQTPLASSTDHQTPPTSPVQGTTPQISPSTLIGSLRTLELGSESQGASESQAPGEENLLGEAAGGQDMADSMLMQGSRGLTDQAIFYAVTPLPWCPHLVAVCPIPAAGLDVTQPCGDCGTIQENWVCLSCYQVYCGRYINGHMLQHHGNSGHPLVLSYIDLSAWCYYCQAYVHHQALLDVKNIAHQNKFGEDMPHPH
Method: as §1, §2, §3

HDAC enzymes = assay: Enzymatic activity assays in 11 HDAC enzymes (statements on the panel); type: biochemical, human; conditions: for inhibitory capacity with respect to the rest of the HDAC enzymes: HDAC enzymes other than HDAC6
Method: as §1, §2, §3

human HDAC2 = molecular target: T6, human HDAC2 (Homo sapiens, UniProt Q92769); assay: HDAC2 enzymatic activity assay (fluorogenic peptide); type: biochemical; conditions: 10-dose, 3-fold serial dilution, triplicate
T6 construct: His (C); purchased BioMol SE-500; host or cells: baculovirus / Sf9 cells
T6 sequence (Q92769 whole entry): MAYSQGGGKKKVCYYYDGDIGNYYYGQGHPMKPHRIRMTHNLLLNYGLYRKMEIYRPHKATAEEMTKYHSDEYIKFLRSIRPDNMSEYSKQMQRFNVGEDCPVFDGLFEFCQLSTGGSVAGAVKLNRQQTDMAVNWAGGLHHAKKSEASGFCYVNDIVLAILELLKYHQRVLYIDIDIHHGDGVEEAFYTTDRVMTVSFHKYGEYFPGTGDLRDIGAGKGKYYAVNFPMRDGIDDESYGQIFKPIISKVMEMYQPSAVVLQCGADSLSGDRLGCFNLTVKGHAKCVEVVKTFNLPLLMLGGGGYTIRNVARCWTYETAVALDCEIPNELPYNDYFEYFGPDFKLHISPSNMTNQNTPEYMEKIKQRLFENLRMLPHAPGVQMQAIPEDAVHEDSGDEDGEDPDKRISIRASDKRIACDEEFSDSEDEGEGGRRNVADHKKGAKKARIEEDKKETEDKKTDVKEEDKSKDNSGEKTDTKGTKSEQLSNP
Method: as §1, §2, §3

SMILES: C[C@H](CCC(=O)NCc1ccc(C(=O)NO)o1)[C@H]1CC[C@H]2[C@@H]3[C@@H](O)C[C@@H]4C[C@H](O)CC[C@]4(C)[C@H]3CC[C@]12C
melting point: 149 to 151 °C

SMILES: C[C@H](CCC(=O)NCc1ccc(C(=O)Nc2cc(-c3ccccc3)ccc2N)cc1)[C@H]1CC[C@H]2[C@@H]3[C@@H](O)C[C@@H]4C[C@H](O)CC[C@]4(C)[C@H]3CC[C@]12C
melting point: 163 to 165 °C

SMILES: C[C@H](CCC(=O)Nc1ccccc1S)[C@H]1CC[C@H]2[C@@H]3[C@@H](O)C[C@@H]4C[C@H](O)CC[C@]4(C)[C@H]3CC[C@]12C
melting point: 157 to 158 °C

SMILES: NCc1ccc(C(=O)NO)cc1 [4-(aminomethyl)-N-hydroxybenzamide, reference compound]
IC50 (human HDAC5): 435 µM
IC50 (human HDAC7): 14.7 µM
IC50 (human HDAC8): 13.6 µM

SMILES: C[C@H](CCC(=O)NCCCCCC(=O)NO)[C@H]1CC[C@H]2[C@@H]3[C@@H](O)C[C@@H]4C[C@H](O)CC[C@]4(C)[C@H]3CC[C@]12C [If, 6-((R)-4-((3R,5S,7S,8R,9S,10S,13R,14S,17R)-3,7-dihydroxy-10,13-dimethylhexadecahydro-1H-cyclopenta[a]phenanthren-17-yl)pentanamide)-N-hydroxyhexanamide]
IC50 (human HDAC1): 2.57 µM
selectivity and inhibitory capacity with respect to HDAC6 enzyme (human HDAC6): nanomolar range
IC50 (human HDAC6): 0.0821 µM
HDAC6 selectivity proportion (human HDAC6): 31
inhibitory capacity with respect to the rest of the HDAC enzymes (HDAC enzymes): micromolar range
melting point: 125 to 127 °C

SMILES: C[C@H](CCC(=O)NCc1ccc(C(=O)NCc2ccc(C(=O)NO)cc2)cc1)[C@H]1CC[C@H]2[C@@H]3[C@@H](O)C[C@@H]4C[C@H](O)CC[C@]4(C)[C@H]3CC[C@]12C [Ig, 4-(((R)-4-((3R,5S,7S,8R,9S,10S,13R,14S,17R)-3,7-dihydroxy-10,13-dimethylhexadecanohydro-1H-cyclopenta[a]phenanthren-17-yl)pentanamido)methyl)-N-(4-(hydroxycarbamoyl)benzyl)benzamide]
IC50 (human HDAC1): 15.2 µM
selectivity and inhibitory capacity with respect to HDAC6 enzyme (human HDAC6): nanomolar range
IC50 (human HDAC6): 0.00426 µM
HDAC6 selectivity proportion (human HDAC6): 3574
inhibitory capacity with respect to the rest of the HDAC enzymes (HDAC enzymes): micromolar range
melting point: 187 to 189 °C

SMILES: C[C@H](CCC(=O)NCc1ccc(C(=O)Nc2ccccc2N)cc1)[C@H]1CC[C@H]2[C@@H]3[C@@H](O)C[C@@H]4C[C@H](O)CC[C@]4(C)[C@H]3CC[C@]12C [Ii, N-(2-aminophenyl)-4-(((R)-4-((3R,5S,7S,8R,9S,10S,13R,14S,17R)-3,7-dihydroxy-10,13-dimethylhexadecahydro-1H-cyclopenta[a]phenanthren-17-yl)pentanamide)methyl)benzamide]
IC50 (human HDAC1): 0.14 µM
HDAC1 selectivity proportion (human HDAC1; matches IC50 HDAC6 / IC50 HDAC1): 58
IC50 (human HDAC2): 0.516 µM
IC50 (human HDAC6): 8.08 µM
melting point: 168 to 170 °C

Second part, the molecule after the results:

melting point: 170 to 172 °C
SMILES: C[C@H](NC(=O)CC[C@@H](C)[C@H]1CC[C@H]2[C@@H]3[C@@H](O)C[C@@H]4C[C@H](O)CC[C@]4(C)[C@H]3CC[C@]12C)C(=O)NO

melting point: 180 to 182 °C
SMILES: C[C@H](CCC(=O)NCCC(=O)NO)[C@H]1CC[C@H]2[C@@H]3[C@@H](O)C[C@@H]4C[C@H](O)CC[C@]4(C)[C@H]3CC[C@]12C

melting point: 165 to 167 °C
SMILES: C[C@H](CCC(=O)NCCCC(=O)NO)[C@H]1CC[C@H]2[C@@H]3[C@@H](O)C[C@@H]4C[C@H](O)CC[C@]4(C)[C@H]3CC[C@]12C

melting point: 116 to 117 °C
SMILES: C[C@H](CCC(=O)NCCS)[C@H]1CC[C@H]2[C@@H]3[C@@H](O)C[C@@H]4C[C@H](O)CC[C@]4(C)[C@H]3CC[C@]12C

inhibitory activity on any HDAC (HDAC enzymes; in the assayed concentration range): no inhibitory activity whatsoever
SMILES: C[C@H](CCC(=O)O)[C@H]1CC[C@H]2[C@@H]3[C@@H](O)C[C@@H]4C[C@H](O)CC[C@]4(C)[C@H]3CC[C@]12C [UDCA, ursodeoxycholic acid]
